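Compound exposure: 48 hours, 5 concentrations, 96-well plates. The concentration for 50% growth inhibition is given as GI50.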 Active and inactive are the calls of the source. Rule as the data show it: active = GI50 up to about 1.1 µM and inactive = higher.
How the values were obtained:
Assay in all cases: NCI-60 cell line screen, 48 h
SK-MEL-2 = system: SK-MEL-2
HOP-92 = system: HOP-92
M14 = system: M14
OVCAR-3 = system: OVCAR-3
CAKI-1 = system: CAKI-1
TK-10 = system: TK-10
U-251 = system: U-251
DU-145 = system: DU-145
Malme-3M = system: Malme-3M
NCI-H460 = system: NCI-H460
786-0 = system: 786-0
OVCAR-8 = system: OVCAR-8
COLO 205 = system: COLO 205
NCI-H522 = system: NCI-H522
PC-3 = system: PC-3
MDA-MB-231 = system: MDA-MB-231
SNB-75 = system: SNB-75
HL-60 = system: HL-60
IGROV-1 = system: IGROV-1
HT-29 = system: HT-29
LOX IMVI = system: LOX IMVI
NCI-H23 = system: NCI-H23
A549 = system: A549
NCI/ADR-RES = system: NCI/ADR-RES
RXF 393 = system: RXF 393
SF-268 = system: SF-268
HCC 2998 = system: HCC 2998
NCI-H226 = system: NCI-H226
RPMI-8226 = system: RPMI-8226
SK-OV-3 = system: SK-OV-3
K562 = system: K562
CCRF-CEM = system: CCRF-CEM
HOP-62 = system: HOP-62
OVCAR-4 = system: OVCAR-4
SK-MEL-5 = system: SK-MEL-5
HCT-15 = system: HCT-15
MOLT-4 = system: MOLT-4
UO-31 = system: UO-31
UACC-62 = system: UACC-62
T47D = system: T47D
SF-295 = system: SF-295
MDA-N = system: MDA-N
SW-620 = system: SW-620
SNB-19 = system: SNB-19
Hs-578T = system: Hs-578T
BT-549 = system: BT-549
SN12C = system: SN12C
HCT-116 = system: HCT-116
MDA-MB-435 = system: MDA-MB-435
UACC-257 = system: UACC-257
OVCAR-5 = system: OVCAR-5
MCF7 = system: MCF7
EKVX = system: EKVX
KM12 = system: KM12
ACHN = system: ACHN
SF-539 = system: SF-539
A498 = system: A498
SR = system: SR
SK-MEL-28 = system: SK-MEL-28

Measured: GI50

COC(=O)[C@H](Cc1c[nH]c2ccccc12)NP(=O)(O)OC[C@H]1O[C@@H](n2cc(C)c(=O)[nH]c2=O)C[C@@H]1N=[N+]=[N-]
> 100000 nM: HCT-15
inactive: SK-MEL-2 > 100000 nM | HOP-92 > 100000 nM | M14 > 100000 nM | OVCAR-3 > 100000 nM | CAKI-1 > 100000 nM | TK-10 > 100000 nM | U-251 > 100000 nM | DU-145 > 100000 nM | Malme-3M > 100000 nM | NCI-H460 > 100000 nM | 786-0 > 100000 nM | OVCAR-8 > 100000 nM | COLO 205 > 100000 nM | NCI-H522 > 100000 nM | PC-3 > 100000 nM | MDA-MB-231 > 100000 nM | SNB-75 > 100000 nM | HL-60 > 100000 nM | IGROV-1 > 100000 nM | HT-29 > 100000 nM | LOX IMVI > 100000 nM | NCI-H23 > 100000 nM | A549 > 100000 nM | NCI/ADR-RES > 100000 nM | RXF 393 > 100000 nM | SF-268 > 100000 nM | HCC 2998 > 100000 nM | NCI-H226 > 100000 nM | RPMI-8226 > 100000 nM | SK-OV-3 > 100000 nM | K562 > 100000 nM | CCRF-CEM > 100000 nM | HOP-62 > 100000 nM | OVCAR-4 > 100000 nM | SK-MEL-5 > 100000 nM | MOLT-4 > 100000 nM | UO-31 > 100000 nM | UACC-62 > 100000 nM | T47D > 100000 nM | SF-295 > 100000 nM | MDA-N > 100000 nM | SW-620 > 100000 nM | SNB-19 > 100000 nM | Hs-578T > 100000 nM | BT-549 > 100000 nM | SN12C > 100000 nM | HCT-116 > 100000 nM | MDA-MB-435 > 100000 nM | UACC-257 > 100000 nM | OVCAR-5 > 100000 nM | MCF7 > 100000 nM | EKVX > 100000 nM | KM12 > 100000 nM

COC(=O)C1c2cc3c(cc2C(OC2OC(C)C(OC)C(C)(OC)C2OC)CC1(C)O)C(=O)c1c(O)cc2c(c1C3=O)OC1OC2(C)C(O)C([N+](C)(C)[O-])C1O (stereo unspecified)
inactive: TK-10 2830 nM | SK-OV-3 1640 nM | OVCAR-4 4090 nM | UO-31 1190 nM | OVCAR-5 1480 nM
2780 nM: HCT-15
active: SK-MEL-2 137 nM | HOP-92 144 nM | ACHN 309 nM | M14 482 nM | OVCAR-3 658 nM | CAKI-1 938 nM | U-251 38.6 nM | DU-145 275 nM | SF-539 88.3 nM | Malme-3M 58.1 nM | NCI-H460 64.4 nM | 786-0 111 nM | OVCAR-8 92.7 nM | COLO 205 63.4 nM | NCI-H522 55 nM | PC-3 355 nM | A498 184 nM | MDA-MB-231 469 nM | SNB-75 179 nM | SR 305 nM | HL-60 286 nM | SK-MEL-28 195 nM | IGROV-1 79.1 nM | HT-29 173 nM | LOX IMVI 35.4 nM | NCI-H23 105 nM | A549 227 nM | RXF 393 179 nM | SF-268 89.1 nM | HCC 2998 146 nM | RPMI-8226 122 nM | K562 32.4 nM | CCRF-CEM 50.4 nM | HOP-62 336 nM | SK-MEL-5 77.6 nM | MOLT-4 416 nM | UACC-62 50.9 nM | T47D 130 nM | SF-295 269 nM | MDA-N 51.2 nM | SW-620 84.5 nM | SNB-19 126 nM | Hs-578T 165 nM | BT-549 179 nM | SN12C 102 nM | HCT-116 19.7 nM | MDA-MB-435 158 nM | UACC-257 182 nM | MCF7 149 nM | EKVX 658 nM | KM12 154 nM
